Results from ChEMBL document CHEMBL1201862, “PubChem BioAssay data set” (2004).
Structures can show the parent of a compound that is named as a salt.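 Five compound concentrations were applied to cells in 96-well plates for 48 hours; endpoints were derived by simple linear interpolation of the resulting dose-response curve. GI50 marks 50% less growth.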 Calls of active or inactive are those of the source. Cut-off read from the data, not from the text of the source: active = GI50 up to about 1.1 µM and inactive = higher.

Legend:
Assay in all cases: NCI-60 cell line screen, 48 h
HT-29 = test system: HT-29
UACC-257 = test system: UACC-257
COLO 205 = test system: COLO 205
OVCAR-3 = test system: OVCAR-3
OVCAR-8 = test system: OVCAR-8
NCI-H522 = test system: NCI-H522
IGROV-1 = test system: IGROV-1
ACHN = test system: ACHN
PC-3 = test system: PC-3
MDA-N = test system: MDA-N
OVCAR-5 = test system: OVCAR-5
SK-MEL-5 = test system: SK-MEL-5
MOLT-4 = test system: MOLT-4
TK-10 = test system: TK-10
SF-295 = test system: SF-295
UACC-62 = test system: UACC-62
MDA-MB-435 = test system: MDA-MB-435
SK-MEL-28 = test system: SK-MEL-28
A498 = test system: A498
HCC 2998 = test system: HCC 2998

Row | SMILES | GI50 (HT-29) | GI50 (UACC-257) | GI50 (COLO 205) | GI50 (OVCAR-3) | GI50 (OVCAR-8) | GI50 (NCI-H522) | GI50 (IGROV-1) | GI50 (ACHN) | GI50 (PC-3) | GI50 (MDA-N) | GI50 (OVCAR-5) | GI50 (SK-MEL-5) | GI50 (MOLT-4) | GI50 (TK-10) | GI50 (SF-295) | GI50 (UACC-62) | GI50 (MDA-MB-435) | GI50 (SK-MEL-28) | GI50 (A498) | GI50 (HCC 2998)
1 | COc1c(C)c(C/C=C(\C)CC/C=C(\C)CC/C=C(\C)CCC=C(C)C)c(OC)c2ccccc12 | > 100 µM (inactive) | > 100 µM (inactive) | > 100 µM (inactive) | > 100 µM (inactive) | > 100 µM (inactive) | > 100 µM (inactive) | 37.2 µM (inactive) | > 100 µM (inactive) | > 100 µM (inactive) | > 100 µM (inactive) | > 100 µM (inactive) | > 100 µM (inactive) | > 100 µM (inactive) | > 100 µM (inactive) | > 100 µM (inactive) | > 100 µM (inactive) | > 100 µM (inactive) | – | – | –
2 | Cc1cccc(C)c1NC(=O)C(=O)C(C#N)c1ccccc1Cl (configuration not stated) | > 100 µM (inactive) | > 100 µM (inactive) | > 100 µM (inactive) | > 100 µM (inactive) | > 100 µM (inactive) | > 100 µM (inactive) | > 100 µM (inactive) | > 100 µM (inactive) | – | – | > 100 µM (inactive) | > 100 µM (inactive) | > 100 µM (inactive) | > 100 µM (inactive) | > 100 µM (inactive) | > 100 µM (inactive) | – | > 100 µM (inactive) | > 100 µM (inactive) | > 100 µM (inactive)
3 | CCOC(=O)CCCn1cc(C(=O)OC)nn1 | > 100 µM (inactive) | > 100 µM (inactive) | > 100 µM (inactive) | – | > 100 µM (inactive) | – | > 100 µM (inactive) | > 100 µM (inactive) | > 100 µM (inactive) | > 100 µM (inactive) | – | > 100 µM (inactive) | > 100 µM (inactive) | > 100 µM (inactive) | 46.5 µM (inactive) | > 100 µM (inactive) | > 100 µM (inactive) | > 100 µM (inactive) | – | > 100 µM (inactive)
4 | CCCCCc1c2nc(c(CCCCC)c3ccc([nH]3)c(CCCCC)c3nc(c(CCCCC)c4ccc1[nH]4)C=C3)C=C2 | > 100 µM (inactive) | > 100 µM (inactive) | > 100 µM (inactive) | > 100 µM (inactive) | > 100 µM (inactive) | > 100 µM (inactive) | > 100 µM (inactive) | > 100 µM (inactive) | > 100 µM (inactive) | > 100 µM (inactive) | > 100 µM (inactive) | > 100 µM (inactive) | > 100 µM (inactive) | > 100 µM (inactive) | > 100 µM (inactive) | > 100 µM (inactive) | > 100 µM (inactive) | > 100 µM (inactive) | – | > 100 µM (inactive)
5 | CCc1cccc(C(C)C)c1NC(=O)C(=O)C(Cc1nc2ccccc2nc1O)C(=O)OC (configuration not stated) | 95.3 µM (inactive) | > 100 µM (inactive) | 43.8 µM (inactive) | > 100 µM (inactive) | > 100 µM (inactive) | 98.4 µM (inactive) | > 100 µM (inactive) | > 100 µM (inactive) | – | – | > 100 µM (inactive) | > 100 µM (inactive) | > 100 µM (inactive) | > 100 µM (inactive) | > 100 µM (inactive) | > 100 µM (inactive) | – | > 100 µM (inactive) | > 100 µM (inactive) | > 100 µM (inactive)
6 | CCCc1nc2c(n1CC)C(=O)c1ccccc1C2=O | 18.5 µM (inactive) | 18 µM (inactive) | 35.5 µM (inactive) | 32.5 µM (inactive) | – | 24.3 µM (inactive) | 27 µM (inactive) | 40.3 µM (inactive) | 34.2 µM (inactive) | 20 µM (inactive) | > 100 µM (inactive) | 29.8 µM (inactive) | 17 µM (inactive) | 66.1 µM (inactive) | 56 µM (inactive) | 26 µM (inactive) | 17.5 µM (inactive) | 82.2 µM (inactive) | – | 30.8 µM (inactive)
7 | C=CC[C@H](C[C@H](C[C@H](C[C@H](C[C@H](C[C@H](C[C@H](C[C@H](C[C@H](C[C@H](CCCCC)OC)OC)OC)OC)OC)OC)OC)OC)OC)OC | > 100 µM (inactive) | 70.8 µM (inactive) | > 100 µM (inactive) | > 100 µM (inactive) | > 100 µM (inactive) | 66.2 µM (inactive) | > 100 µM (inactive) | > 100 µM (inactive) | – | – | > 100 µM (inactive) | 52.7 µM (inactive) | 41.8 µM (inactive) | > 100 µM (inactive) | > 100 µM (inactive) | > 100 µM (inactive) | – | > 100 µM (inactive) | 85.7 µM (inactive) | > 100 µM (inactive)
8 | N=c1ccn2c(n1)O[C@H]1[C@H](O)[C@@H](CO)O[C@H]12 [ANCITABINE HYDROCHLORIDE] | 135 µM (inactive) | 78.7 µM (inactive) | 154 µM (inactive) | – | 0.658 µM (active) | 47.4 µM (inactive) | 151 µM (inactive) | 0.291 µM (active) | 2.79 µM (inactive) | – | 24.7 µM (inactive) | 9.23 µM (inactive) | 0.207 µM (active) | > 1000 µM (inactive) | 25.2 µM (inactive) | 2.24 µM (inactive) | – | – | 13.6 µM (inactive) | 33.7 µM (inactive)
